# Measurements: BigSolDB 2.1
structure (smiles),measurement,setting,value
O=C1O[B-]2(OC1=O)OC(=O)C(=O)O2.[Li+],solubility (mole fraction),"in DMF, 293.15 K",0.114
same,solubility (mole fraction),"in DMF, 303.15 K",0.0838
same,solubility (mole fraction),"in DMF, 313.15 K",0.0658
same,solubility (mole fraction),"in DMF, 323.15 K",0.0542
same,solubility (mole fraction),"in DMF, 333.15 K",0.0404
same,solubility (mole fraction),"in DMF, 343.15 K",0.0352
same,solubility (mole fraction),"in DMF, 353.15 K",0.0323
same,solubility (mole fraction),"in DMF, 363.15 K",0.023
same,solubility (mole fraction),"in DMSO, 293.15 K",0.148
same,solubility (mole fraction),"in DMSO, 303.15 K",0.139
same,solubility (mole fraction),"in DMSO, 313.15 K",0.127
same,solubility (mole fraction),"in DMSO, 323.15 K",0.113
same,solubility (mole fraction),"in DMSO, 333.15 K",0.0989
same,solubility (mole fraction),"in DMSO, 343.15 K",0.0869
same,solubility (mole fraction),"in DMSO, 353.15 K",0.0774
same,solubility (mole fraction),"in DMSO, 363.15 K",0.0666
same,solubility (mole fraction),"in THF, 293.15 K",0.0479
same,solubility (mole fraction),"in THF, 303.15 K",0.0336
same,solubility (mole fraction),"in THF, 313.15 K",0.0269
same,solubility (mole fraction),"in THF, 323.15 K",0.0217
same,solubility (mole fraction),"in THF, 333.15 K",0.0172
same,solubility (mole fraction),"in acetonitrile, 293.15 K",0.00893
same,solubility (mole fraction),"in acetonitrile, 303.15 K",0.00869
same,solubility (mole fraction),"in acetonitrile, 313.15 K",0.00803
same,solubility (mole fraction),"in acetonitrile, 323.15 K",0.00653
same,solubility (mole fraction),"in acetonitrile, 333.15 K",0.00566
same,solubility (mole fraction),"in acetonitrile, 343.15 K",0.00297
same,solubility (mole fraction),"in gamma-butyrolactone, 293.15 K",0.1
same,solubility (mole fraction),"in gamma-butyrolactone, 303.15 K",0.0796
same,solubility (mole fraction),"in gamma-butyrolactone, 313.15 K",0.0544
same,solubility (mole fraction),"in gamma-butyrolactone, 323.15 K",0.0372
same,solubility (mole fraction),"in gamma-butyrolactone, 333.15 K",0.0248
same,solubility (mole fraction),"in gamma-butyrolactone, 343.15 K",0.0163
same,solubility (mole fraction),"in gamma-butyrolactone, 353.15 K",0.00786
same,solubility (mole fraction),"in gamma-butyrolactone, 363.15 K",0.00503
same,solubility (mole fraction),"in propylene carbonate, 293.15 K",0.0393
same,solubility (mole fraction),"in propylene carbonate, 313.15 K",0.0312
same,solubility (mole fraction),"in propylene carbonate, 323.15 K",0.0214
same,solubility (mole fraction),"in propylene carbonate, 333.15 K",0.0106
same,solubility (mole fraction),"in propylene carbonate, 343.15 K",0.00574
same,solubility (mole fraction),"in propylene carbonate, 353.15 K",0.00218
same,solubility (mole fraction),"in propylene carbonate, 363.15 K",0.00132
